# In patent US20110269815A1, “METHODS OF REDUCING CELLULAR PROLIFERATION BY INHIBITING ACSVL3” (THE JOHNS HOPKINS UNIVERSITY, priority 2008, published 2011):
# Numbered stars: 1 amine (or outer) side, 2 acyl side, 3 side chain; on linkers, the order of the positions; unused ones are H or OH. Bridge positions count the residues as written; N and C are the ends. Square brackets hold non-standard residues; d marks the D form. Peptide text beside a SMILES is read from it. I, II: the chains in the order shown. * marks the point of attachment. Actinocin(9to1) = Cc1c2oc3c(C)ccc(C(=O)[*:1])c3nc-2c(C(=O)[*:2])c(N)c1=O; NMeV = CN[C@H](C(=O)O)C(C)C; Cbz = O=C(OCc1ccccc1)*; Sar = CNCC(=O)O; CH2F = FC*
# Assays:
# [1] = tested on: ACSVL3; experiment: ACSVL3 expression in U373 glioma cells treated with HGF or EGF (Western blot); type: cell-based, human; conditions: for ACSVL3 expression: HGF 20 ng/ml or EGF 30 ng/ml, 16 hrs
# Description: (§1) A. Human U87, U373, and Mayo-22 glioma cells were grown to ˜80% confluence. Cells were either untreated or incubated 16 hrs in the presence of HGF (20 ng/ml; gift from Genentech; South San Francisco Calif.) or EGF (30 ng/ml; Calbiochem/EMD; San Diego Calif.) before harvesting and Western blot analysis for ACSVL3 expression. Each lane contained 30 μg total cellular protein. Actin was detected as a loading control. The three sections were from the same Western blot; images were obtained simultaneously. B. U87 cells stably expressing constitutively active EGFR (EGFRvIII) or corresponding control U87 cells were harvested and analyzed by Western blot. Actin was detected as a loading control. C. Tumors were produced in the flanks of athymic nude mice (n=12) by s.c. injection (2 sites per mouse) of 4×10^6 U87 cells. When tumors size reached ˜300 mm^3 (day 14), animals were randomly divided into two groups of 6 mice. One group received i.p. injection (100 μg/20 g body wt) of anti-HGF mAb (L2G7) and the other group received isotype control mAb (5G8) on days 14, 16, and 18. Mice were sacrificed on day 20. Tumor homogenates (50 μg protein) were subjected to Western blot analysis for ACSVL3 expression. Actin expression was used as a loading control.
# Immunohistochemistry, immunofluorescence, and Western blotting. Immunohistochemical staining for ACSVL3 and ACSBG1, and immunofluorescence analysis of ACSVL3, were performed using affinity-purified antibodies as described (9, 15). ACSVL3 was detected on Western blots with SuperSignal West Pico chemiluminescent substrate (Pierce Biotechnology, Rockford Ill.). Total and phospho-Akt (ser473) were detected with antibodies from BD Biosciences (San Jose Calif.) and Cell Signaling Technology (Danvers Mass.), respectively, and quantitated with the LiCOR Odyssey dual wavelength infrared system. Protein was determined by the method of Lowry et al. (16).
# Further characterization of induction of ACSVL3 expression in U373 cells. Human U373 glioma cells have low ACSVL3 expression unless treated with hepatocyte growth factor (HGF). […]
# [2] = tested on: ACSVL3; experiment: ACSVL3 expression in U87 glioma cells treated with HGF or EGF (Western blot); type: cell-based, human; conditions: HGF 20 ng/ml or EGF 30 ng/ml, 16 hrs
# Description: as §1, with “One group received i.p. injection (100 μg/20 g body wt) of anti-HGF mAb (L2G7) and the other group received isotype control mAb (5G8) on days 14, 16, and 18. Mice were sacrificed on day 20. Tumor homogenates (50 μg protein) were subjected to Western blot analysis for ACSVL3 expression. Actin expression was used as a loading control.” left out
# (§2) Immunohistochemistry, immunofluorescence, and Western blotting. […] ACSVL3 was detected on Western blots with SuperSignal West Pico chemiluminescent substrate (Pierce Biotechnology, Rockford Ill.). Total and phospho-Akt (ser473) were detected with antibodies from BD Biosciences (San Jose Calif.) and Cell Signaling Technology (Danvers Mass.), respectively, and quantitated with the LiCOR Odyssey dual wavelength infrared system. Protein was determined by the method of Lowry et al. (16).
# [3] = tested on: Akt; experiment: Akt signaling after HGF in control and ACSVL3 KD U87 cells (Western blot); type: cell-based, human; conditions: HGF 20 ng/ml
# Description: A & B. Effect of HGF treatment on Akt phosphorylation and stability. Control and ACSVL3-3 KD U87 cells were incubated with HGF (20 ng/ml) for the indicated time prior to analysis for total Akt and phospho-Akt levels by Western blot. A, LiCOR Odyssey images; control and KD images were obtained simultaneously. B, Quantitation of the LiCOR data. C. Effect of caspase inhibition on Akt stability. One control and two different knockdown clones produced using the ACSVL3-3 shRNA plasmid were incubated with HGF (20 ng/ml) for the indicated time in the absence or presence of the pan-caspase inhibitor, Z-VAD-FMK (50 μM), prior to analysis for total Akt and phospho-Akt levels by Western blot. […] Left, adherent growth was measured 11.5 days post-transfection as described in the legend to FIG. 4A. Right, anchorage-independent growth was measured by colony formation in soft agar on day 17 post-transfection as described in the legend to FIG. 4B. Mean±standard error is shown; statistical significance was determined by one-way ANOVA with Bonferroni's multiple comparison test. ***, p<0.001 vs. control vector; **, p<0.01 vs. control vector; n.s., p>0.05 vs. control myr-Akt.
# Immunohistochemistry, immunofluorescence, and Western blotting. […] ACSVL3 was detected on Western blots with SuperSignal West Pico chemiluminescent substrate (Pierce Biotechnology, Rockford Ill.). […]
# [4] = tested on: ACSVL3; experiment: ACSVL3 expression in Mayo-22 glioma cells treated with HGF or EGF (Western blot); type: cell-based, human; conditions: Mayo 22 cells; HGF 20 ng/ml or EGF 30 ng/ml, 16 hrs
# Description: as §1, with “One group received i.p. injection (100 μg/20 g body wt) of anti-HGF mAb (L2G7) and the other group received isotype control mAb (5G8) on days 14, 16, and 18. Mice were sacrificed on day 20. Tumor homogenates (50 μg protein) were subjected to Western blot analysis for ACSVL3 expression. Actin expression was used as a loading control.” left out
# as §2
# [5] = tested on: ACSVL3; experiment: ACSVL3 expression in U373 cells with transcription or translation inhibitor, without or with HGF; type: cell-based, human; conditions: actinomycin D 20 μg/ml, cycloheximide 5 μM; for HGF-induced increase in ACSVL3 expression: HGF 6 hours
# Description: We then investigated whether the increase in ACSVL3 protein in U373 cells was due to increased transcription of the ACSVL3 gene, or increased translation of ACSVL3 mRNA. U373 cells were incubated without or with HGF for 6 hours in the absence and presence of an inhibitor of transcription, actinomycin D, or the protein synthesis (translation) inhibitor, cycloheximide. Actinomycin D (20 μg/ml) and cycloheximide (5 μM) were added to the culture medium 16 and 8 hours, respectively, prior to the addition of HGF.
# [6] = tested on: ACSVL3; experiment: Acyl-CoA synthetase activity of control vs ACSVL3-deficient U87 cells with candidate small molecule inhibitors; type: biochemical, human; conditions: 80 μM drug; palmitic acid substrate; preliminary studies, FIG. 14
# Description: Acyl-CoA synthetase assays. Activation of [1-^14C]palmitate (C16:0) or [1-^14C]lignocerate (C24:0) (Moravek Biochemicals, Brea Calif.) to their CoA derivatives was measured in frozen/thawed cell suspensions or post-nuclear supernatants of xenograft tissue homogenates as previously described (9, 19). Assays contained 15 or 60 μg cell or tissue protein for C16:0 and C24:0 fatty acid substrates, respectively.
# For this study, we examined the effects of candidate small molecule inhibitors on the acyl-CoA synthetase activity of control U87 glioblastoma cells and ACSVL3-deficient U87 cells. The 16-carbon fatty acid, palmitic acid, was used as substrate. Drugs were solubilized in dimethylsulfoxide (DMSO, 10 mM) and diluted with phosphate-buffered saline (PBS, 0.8 mM) prior to their inclusion in enzyme assays; the final concentration of drug in the assay was 80 μM. Control incubations contained the vehicle, DMSO diluted in PBS, only. The assay measures the combined enzyme activity of all acyl-CoA synthetases found in U87 cells that are capable of using palmitic acid as substrate. A specific inhibitor of ACSVL3 is one in which there is partial inhibition of total cellular enzyme activity in control U87 cells (grey bars), but not in ACSVL3-deficient U87 cells (black bars).
compound,measurement,setting,value
"HGF: Hepatocyte growth factor, c-Met agonist",time course of induction of ACSVL3 protein,[1]; FIG. 12,increased in U373 cells as early as 2 hours
same,ACSVL3 expression,[1],induce ACSVL3 expression levels
same,ACSVL3 expression,[2],not increased above its high basal expression levels
same,Akt phosphorylation (Ser-473),[3]; control-transfected U87 glioma cells,increased rapidly and remained elevated for up to two hours
same,ACSVL3 expression,[4],induce ACSVL3 expression levels
"Cc1c2oc3c(C)ccc(C(=O)N[C@@H]4C(=O)N[C@H](C(C)C)C(=O)N5CCC[C@H]5C(=O)N(C)CC(=O)N(C)[C@@H](C(C)C)C(=O)O[C@@H]4C)c3nc-2c(C(=O)N[C@@H]2C(=O)N[C@H](C(C)C)C(=O)N3CCC[C@H]3C(=O)N(C)CC(=O)N(C)[C@@H](C(C)C)C(=O)O[C@@H]2C)c(N)c1=O [actinomycin D] (I: T[dV]P[Sar][NMeV] / II: T[dV]P[Sar][NMeV]; ester I:1-I:C, II:1-II:C; linker I:N-II:N via Actinocin(9to1))",HGF-induced increase in ACSVL3 expression,[5],blocked the HGF-induced increase in ACSVL3 expression
same,ACSVL3 expression in the absence of HGF,[5],neither actinomycin D nor cycloheximide affected ACSVL3 expression
CN1CCN(CCCN2c3ccccc3Sc3ccc(C(F)(F)F)cc32)CC1 [trifluperazine],inhibition of acyl-CoA synthetase activity in control vs ACSVL3-deficient U87 cells (specificity for ACSVL3),[6],"inhibit both control and ACSVL3-deficient cells, but show greater inhibition in control U87 cells"
Cc1cc(O)c2c(c1)C(=O)c1cc(O)cc(O)c1C2=O [emodin],inhibition of acyl-CoA synthetase activity in control vs ACSVL3-deficient U87 cells (specificity for ACSVL3),[6],inhibit enzyme activity similarly in both control and ACSVL3-deficient U87 cells
CC(CN1c2ccccc2Sc2ccccc21)N(C)C (stereo not shown) [promethazine],inhibition of acyl-CoA synthetase activity in control vs ACSVL3-deficient U87 cells (specificity for ACSVL3),[6],inhibit enzyme activity similarly in both control and ACSVL3-deficient U87 cells
OCCN1CCN(CCCN2c3ccccc3Sc3ccc(Cl)cc32)CC1 [perphenizine],inhibition of acyl-CoA synthetase activity in control vs ACSVL3-deficient U87 cells (specificity for ACSVL3),[6],exhibited specificity for ACSVL3
Nc1ccc(/N=N/c2ccccc2)c(N)n1 [phenazopyridine],inhibition of acyl-CoA synthetase activity in control vs ACSVL3-deficient U87 cells (specificity for ACSVL3),[6],inhibit enzyme activity similarly in both control and ACSVL3-deficient U87 cells
CN(C)CCCN1c2ccccc2Sc2ccc(Cl)cc21 [chlorpromazine],inhibition of acyl-CoA synthetase activity in control vs ACSVL3-deficient U87 cells (specificity for ACSVL3),[6],exhibited specificity for ACSVL3
O=C1NCN(c2ccccc2)C12CCN(CCCC(c1ccc(F)cc1)c1ccc(F)cc1)CC2 [fluspirilene],inhibition of acyl-CoA synthetase activity in control vs ACSVL3-deficient U87 cells (specificity for ACSVL3),[6],inhibit enzyme activity similarly in both control and ACSVL3-deficient U87 cells
OCCN1CCN(CC/C=C2/c3ccccc3Sc3ccc(C(F)(F)F)cc32)CC1 [flupenthixol],inhibition of acyl-CoA synthetase activity in control vs ACSVL3-deficient U87 cells (specificity for ACSVL3),[6],"inhibit both control and ACSVL3-deficient cells, but show greater inhibition in control U87 cells"
"EGF: EGFR ligand, epidermal growth factor",ACSVL3 expression,[1],increased ACSVL3 expression
same,ACSVL3 expression,[2],not increased above its high basal expression levels
same,ACSVL3 expression,[4],increased ACSVL3 expression
Cbz-Val-Ala-Asp-CH2F,Akt response to HGF stimulation under caspase inhibition,"[3]; ACSVL3 KD U87 cells, Z-VAD-FMK 50 μM",normalized the Akt response to HGF stimulation
C[C@@H]1C[C@@H]([C@H](O)CC2CC(=O)NC(=O)C2)C(=O)[C@@H](C)C1 [cycloheximide],HGF-induced increase in ACSVL3 expression,[5],blocked the HGF-induced increase in ACSVL3 expression
same,ACSVL3 expression in the absence of HGF,[5],neither actinomycin D nor cycloheximide affected ACSVL3 expression
CN(C)CCCN1c2ccccc2Sc2ccc(C(F)(F)F)cc21 [Triflupromazine],inhibition of acyl-CoA synthetase activity in control vs ACSVL3-deficient U87 cells (specificity for ACSVL3),[6],exhibited specificity for ACSVL3
